Measurements: patent publication US9931347B2, “Pharmaceutical compound” (IOmet Pharma Ltd., priority 2013, dated 2018)

Key:
Recombinant human IDO = Recombinant human IDO (Homo sapiens, UniProt P14902); assay: hIDO biochemical coupled assay; settings: 45 μM L-tryptophan, coupled with kynurenine formamidase
Procedure: (§1) Exemplary compounds of the invention were prepared, and tested to determine their effect as TDO and/or IDO inhibitors. Two different assays were employed: 1. a cell-based assay for detecting the effect of test compounds on kynurenine production in two different cancer cell types. This assay utilised cancer cells which expressed either TDO or IDO and as such was used as a means of testing compound activity at these two enzymes in a cell-based context. 2. a TDO and IDO biochemical coupled assay which utilised recombinantly produced and purified TDO and IDO enzymes in combination with the enzyme formamidase. This coupled enzyme system allowed conversion of N-formylkynurenine produced by TDO or IDO activity to kynurenine which was then quantified by fluorescence following addition of Erhlich's Reagent The protocols for these are set out below.
Recombinant human IDO or TDO was incubated in 50 mM KPO4 (pH 7.0), 0.5 mM EGTA, 0.5 mM EDTA, 0.05% Triton™ X100, 20 mM ascorbate, 10 μM methylene blue, 500 U/ml catalase, 50 μg/ml KynB (kynurenine formamidase).

[1] = biological target: T1, TDO (A172 human glioblastoma cells) (Homo sapiens, UniProt P48775); assay: A172 Kynurenine cell based assay; settings: 500 μM L-tryptophan, 48 hours, kynurenine by Erhlich's reagent
T1 construct: This assay utilised cancer cells which expressed either TDO or IDO; endogenous in cells; host or cells: A172 human glioblastoma cells
In short: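 Kynurenine released into the supernatant was quantified by absorbance at 490 nm after 5 min with Erhlich's reagent. A172 cells were seeded at 30,000/well and exposed to test compound for 48 hours at 37° C. in phenol red-free RPMI containing 500 μM L-tryptophan, 10% FCS and 2 mM L-glutamine.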

[2] = biological target: T2, IDO (SKOV3 human ovarian adenocarcinoma cells, IFN-γ induced) (Homo sapiens, UniProt P14902); assay: SKOV3 Kynurenine cell based assay; settings: IDO induced by 500 ng/ml IFN-γ, 500 μM L-tryptophan, 48 hours
T2 construct: IDO expression was induced in the SKOV3 cells by the addition of 500 ng/ml IFN-γ; endogenous in cells; host or cells: SKOV3 human ovarian adenocarcinoma cells, induced with IFN-γ
In short: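 Kynurenine in the supernatant, detected by Ehrlich's reagent, served as read-out after 48 h at 37° C with or without test compound. SKOV3 cells (40,000/well) were grown in phenol red-free RPMI, 10% FCS, 2 mM L-glutamine, 500 μM L-tryptophan, with 500 ng/ml IFN-γ to induce IDO.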

Recombinant human TDO = Recombinant human TDO (Homo sapiens, UniProt P48775); assay: hTDO biochemical coupled assay; settings: 330 μM L-tryptophan, coupled with kynurenine formamidase
Procedure: as §1
Recombinant human IDO or TDO was incubated in 50 mM KPO4 (pH 7.0), 0.5 mM EGTA, 0.5 mM EDTA, 0.05% Triton™ X100, 20 mM ascorbate, 10 μM methylene blue, 500 U/ml catalase, 50 μg/ml KynB (kynurenine formamidase). TDO assays were carried out in the presence of 330 μM L-tryptophan, while IDO assays had the addition of 45 μM L-tryptophan. After incubation for 17 minutes at room temperature the reactions were stopped by the addition of Erhlich's reagent and incubated at room temperature for 5 minutes before the fluorescence was read (Ex475, Em530).

T2 sequence (P14902 whole entry): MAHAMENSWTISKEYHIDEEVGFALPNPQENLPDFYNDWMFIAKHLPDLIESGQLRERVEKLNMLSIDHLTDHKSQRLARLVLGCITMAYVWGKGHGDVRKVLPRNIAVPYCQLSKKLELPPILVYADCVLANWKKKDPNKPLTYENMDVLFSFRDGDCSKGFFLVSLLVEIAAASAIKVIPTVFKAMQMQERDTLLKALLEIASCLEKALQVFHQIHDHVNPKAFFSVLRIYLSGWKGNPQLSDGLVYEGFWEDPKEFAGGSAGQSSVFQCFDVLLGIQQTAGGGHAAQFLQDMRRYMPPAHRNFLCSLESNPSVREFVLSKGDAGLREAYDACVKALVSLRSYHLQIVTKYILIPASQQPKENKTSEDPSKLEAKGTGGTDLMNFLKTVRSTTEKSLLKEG
Chain of Recombinant human IDO (P14902 whole entry): as above
Chain of Recombinant human TDO (P48775 whole entry): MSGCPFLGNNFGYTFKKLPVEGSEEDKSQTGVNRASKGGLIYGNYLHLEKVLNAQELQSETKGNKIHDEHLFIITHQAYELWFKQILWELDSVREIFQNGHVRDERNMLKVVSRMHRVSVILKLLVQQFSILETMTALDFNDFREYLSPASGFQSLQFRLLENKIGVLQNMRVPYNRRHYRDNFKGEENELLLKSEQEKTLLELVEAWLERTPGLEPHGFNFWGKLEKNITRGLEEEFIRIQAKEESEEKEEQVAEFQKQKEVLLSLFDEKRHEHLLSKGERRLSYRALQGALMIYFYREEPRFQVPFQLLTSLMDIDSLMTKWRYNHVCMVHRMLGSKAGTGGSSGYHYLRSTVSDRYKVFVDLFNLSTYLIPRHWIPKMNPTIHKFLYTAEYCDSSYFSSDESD
T1 sequence (P48775 whole entry): as above

SMILES | hIDO biocehmical assay pIC50 (Recombinant human IDO) | A172 Kynurenine cell based assay pIC50 [1] | SKOV3 Kynurenine cell based assay pIC50 [2] | hTDO biochemical assay pIC50 (Recombinant human TDO)
Cc1ccc2[nH]cc(C3=CCN(S(C)(=O)=O)CC3)c2c1 [Compound 92] | +− (+− = pIC50 <4.00) | ++ (++ = pIC50 5.00-5.99) | + (+ = pIC50 4.00-4.99) | + (+ = pIC50 4.00-4.99)
CS(=O)(=O)N1CCC(c2c[nH]c3ccccc23)CC1 [Compound 3] | +− (+− = pIC50 <4.00) | ++ (++ = pIC50 5.00-5.99) | +− (+− = pIC50 <4.00) | ++ (++ = pIC50 5.00-5.99)
CC(=O)N1CC=C(c2c(C)[nH]c3ccccc23)CC1 [Compound 104] | +− (+− = pIC50 <4.00) | +− (+− = pIC50 <4.00) | + (+ = pIC50 4.00-4.99) | + (+ = pIC50 4.00-4.99)
CS(=O)(=O)N1CCC(c2c[nH]c3cnccc23)CC1 [Compound 176] | +− (+− = pIC50 <4.00) | + (+ = pIC50 4.00-4.99) | + (+ = pIC50 4.00-4.99) | +− (+− = pIC50 <4.00)
COCCS(=O)(=O)N1CCC(c2c[nH]c3cc(F)ccc23)CC1 [Compound 285] |  | ++ (++ = pIC50 5.00-5.99) | + (+ = pIC50 4.00-4.99) | + (+ = pIC50 4.00-4.99)
O=C(CO)N1CCC(c2c[nH]c3cc(F)ccc23)CC1 [Compound 269] |  | ++ (++ = pIC50 5.00-5.99) | + (+ = pIC50 4.00-4.99) | + (+ = pIC50 4.00-4.99)
CNS(=O)(=O)N1CCC(c2c[nH]c3cc(F)ccc23)CC1 [Compound 257] |  | ++ (++ = pIC50 5.00-5.99) | + (+ = pIC50 4.00-4.99) | + (+ = pIC50 4.00-4.99)
CCNC(=O)N1CCC(c2c[nH]c3ccccc23)CC1 [Compound 68] | +− (+− = pIC50 <4.00) | + (+ = pIC50 4.00-4.99) | +− (+− = pIC50 <4.00) | ++ (++ = pIC50 5.00-5.99)
Cc1cccc2c(C3CCN(S(=O)(=O)c4ccc5c(c4)CN(C(=O)C(F)(F)F)CC5)CC3)c[nH]c12 [Compound 37] | +− (+− = pIC50 <4.00) | +− (+− = pIC50 <4.00) | + (+ = pIC50 4.00-4.99) | +− (+− = pIC50 <4.00)
CS(=O)(=O)N1CC=C(c2c[nH]c3cc(Cl)ccc23)CC1 [Compound 76] | +− (+− = pIC50 <4.00) | ++ (++ = pIC50 5.00-5.99) | + (+ = pIC50 4.00-4.99) | ++ (++ = pIC50 5.00-5.99)
Cc1ccc(S(=O)(=O)N2CCC(c3c[nH]c4ccccc34)CC2)cc1 [Compound 9] | +− (+− = pIC50 <4.00) | + (+ = pIC50 4.00-4.99) | + (+ = pIC50 4.00-4.99) | +− (+− = pIC50 <4.00)
CCn1ncc(S(=O)(=O)N2CCC3(CC2)C(=O)Nc2ccccc23)c1C [Compound 173] | +− (+− = pIC50 <4.00) | + (+ = pIC50 4.00-4.99) | + (+ = pIC50 4.00-4.99) | +− (+− = pIC50 <4.00)
CS(=O)(=O)N1CCC(c2c[nH]c3cc(F)c(F)cc23)CC1 [Compound 236] |  | ++ (++ = pIC50 5.00-5.99) | + (+ = pIC50 4.00-4.99) | + (+ = pIC50 4.00-4.99)
CS(=O)(=O)N1CCC(c2c[nH]c3cc(F)ccc23)CC1 [Compound 22] | +− (+− = pIC50 <4.00) | +++ (+++ = pIC50 ≥6.00) | +− (+− = pIC50 <4.00) | + (+ = pIC50 4.00-4.99)
COc1ccc2[nH]cc(C3CCN(S(=O)(=O)c4cc(C(F)(F)F)ccc4C(F)(F)F)CC3)c2c1 [Compound 55] | +− (+− = pIC50 <4.00) | +− (+− = pIC50 <4.00) | ++ (++ = pIC50 5.00-5.99) | +− (+− = pIC50 <4.00)
CCC(=O)N1CCC(c2c[nH]c3cc(F)ccc23)CC1 [Compound 263] |  | ++ (++ = pIC50 5.00-5.99) | ++ (++ = pIC50 5.00-5.99) | + (+ = pIC50 4.00-4.99)
O=C(C1CC1)N1CCC(c2c[nH]c3cc(F)ccc23)CC1 [Compound 265] |  | ++ (++ = pIC50 5.00-5.99) | + (+ = pIC50 4.00-4.99) | + (+ = pIC50 4.00-4.99)
O=S(=O)(C1CC1)N1CCC(c2c[nH]c3cc(F)ccc23)CC1 [Compound 288] |  | ++ (++ = pIC50 5.00-5.99) | + (+ = pIC50 4.00-4.99) | + (+ = pIC50 4.00-4.99)
CC(=O)N1CCCN(c2c[nH]c3ccccc23)CC1 [Compound 308] |  |  | + (+ = pIC50 4.00-4.99) | + (+ = pIC50 4.00-4.99)
CCCS(=O)(=O)N1CCC(c2c[nH]c3cc(F)ccc23)CC1 [Compound 292] |  | ++ (++ = pIC50 5.00-5.99) | + (+ = pIC50 4.00-4.99) | + (+ = pIC50 4.00-4.99)
CNS(=O)(=O)N1CC=C(c2c[nH]c3cc(F)ccc23)CC1 [Compound 256] |  | ++ (++ = pIC50 5.00-5.99) | + (+ = pIC50 4.00-4.99) | + (+ = pIC50 4.00-4.99)
CN(C)S(=O)(=O)N1CC=C(c2c[nH]c3cc(F)ccc23)CC1 [Compound 251] |  | +++ (+++ = pIC50 ≥6.00) | + (+ = pIC50 4.00-4.99) | + (+ = pIC50 4.00-4.99)
